Laboratory results published in ChEMBL document CHEMBL1201862, “PubChem BioAssay data set” (2004).
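These data come from cells grown in 96-well plates and exposed to compound for 48 hours at five concentrations. The concentration for 50% growth inhibition is given as GI50.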 Calls of active or inactive are those of the source. Cut-off read from the data, not from the text of the source: active = GI50 up to about 1.1 µM and inactive = higher.

Key:
Experiment in all cases: DTP human tumour cell line panel, 48 h
UACC-62 = test system: UACC-62
T47D = test system: T47D
MDA-N = test system: MDA-N
HOP-62 = test system: HOP-62
NCI-H522 = test system: NCI-H522
NCI-H226 = test system: NCI-H226
UACC-257 = test system: UACC-257
OVCAR-3 = test system: OVCAR-3
SW-620 = test system: SW-620
UO-31 = test system: UO-31
COLO 205 = test system: COLO 205
Hs-578T = test system: Hs-578T
HL-60 = test system: HL-60
U-251 = test system: U-251
SF-268 = test system: SF-268
ACHN = test system: ACHN
HT-29 = test system: HT-29
HCT-116 = test system: HCT-116
CCRF-CEM = test system: CCRF-CEM
RXF 393 = test system: RXF 393

| SMILES | GI50 (UACC-62) | GI50 (T47D) | GI50 (MDA-N) | GI50 (HOP-62) | GI50 (NCI-H522) | GI50 (NCI-H226) | GI50 (UACC-257) | GI50 (OVCAR-3) | GI50 (SW-620) | GI50 (UO-31) | GI50 (COLO 205) | GI50 (Hs-578T) | GI50 (HL-60) | GI50 (U-251) | GI50 (SF-268) | GI50 (ACHN) | GI50 (HT-29) | GI50 (HCT-116) | GI50 (CCRF-CEM) | GI50 (RXF 393) |
| --- | --- | --- | --- | --- | --- | --- | --- | --- | --- | --- | --- | --- | --- | --- | --- | --- | --- | --- | --- | --- |
| Cc1[nH]n(-c2ccccc2)c(=O)c1C(N(CCc1ccccc1)C1=NCC(C)S1)(C(F)(F)F)C(F)(F)F (stereo unspecified) | 8.71 µM (inactive) | 5.19 µM (inactive) | 8.63 µM (inactive) | 24.3 µM (inactive) | 4.35 µM (inactive) | 6.28 µM (inactive) | 16 µM (inactive) | 8.77 µM (inactive) | 18.1 µM (inactive) | 10.4 µM (inactive) | 6.27 µM (inactive) | 20.5 µM (inactive) | 7.69 µM (inactive) | 7.41 µM (inactive) | 21.4 µM (inactive) | 16.2 µM (inactive) | 17.8 µM (inactive) | 10.1 µM (inactive) | 19.3 µM (inactive) |  |
| Cn1c2ccccc2c(=O)c2c(O)cc3c(c21)C=CC1(CCCCC1)O3 | > 10 µM (inactive) | > 10 µM (inactive) | > 10 µM (inactive) | > 10 µM (inactive) | > 10 µM (inactive) | 5.89 µM (inactive) | > 10 µM (inactive) | > 10 µM (inactive) | > 10 µM (inactive) | > 10 µM (inactive) | > 10 µM (inactive) | 9.06 µM (inactive) |  | > 10 µM (inactive) | > 10 µM (inactive) | > 10 µM (inactive) | 3.85 µM (inactive) | > 10 µM (inactive) | > 10 µM (inactive) | > 10 µM (inactive) |
| COc1ccc(C2CC(c3ccccc3)=Nc3c(-c4ccccc4)nnn32)cc1 (stereo unspecified) | 55.7 µM (inactive) | 10 µM (inactive) | > 100 µM (inactive) | 96.2 µM (inactive) | 8.22 µM (inactive) | > 100 µM (inactive) | > 100 µM (inactive) | 54.7 µM (inactive) | > 100 µM (inactive) | > 100 µM (inactive) | > 100 µM (inactive) | 51.2 µM (inactive) | > 100 µM (inactive) | 9.84 µM (inactive) | > 100 µM (inactive) | 17 µM (inactive) | > 100 µM (inactive) | 35.5 µM (inactive) | > 100 µM (inactive) |  |
| Cc1nn(-c2ccccc2)c2c1N=C(C(=O)O)CC(c1ccccc1)=N2 | > 10 µM (inactive) | > 10 µM (inactive) | > 10 µM (inactive) | > 10 µM (inactive) | > 10 µM (inactive) |  | > 10 µM (inactive) | > 10 µM (inactive) | > 10 µM (inactive) |  | > 10 µM (inactive) | > 10 µM (inactive) | > 10 µM (inactive) | > 10 µM (inactive) | > 10 µM (inactive) | > 10 µM (inactive) | > 10 µM (inactive) | > 10 µM (inactive) |  |  |
| c1cc2cc(c1)CN1CCNCCN(CCNCC1)Cc1cccc(c1)CN1CCNCCN(CCNCC1)C2 | > 100 µM (inactive) | > 100 µM (inactive) | > 100 µM (inactive) | > 100 µM (inactive) |  |  | > 100 µM (inactive) | > 100 µM (inactive) | > 100 µM (inactive) | > 100 µM (inactive) | > 100 µM (inactive) | > 100 µM (inactive) |  | > 100 µM (inactive) | > 100 µM (inactive) | > 100 µM (inactive) | > 100 µM (inactive) | > 100 µM (inactive) |  |  |
| Cn1c(=O)n(-c2c3ccccc3c(Cl)c3ccccc23)n(C(C)(C)C)c1=O | > 100 µM (inactive) | > 100 µM (inactive) | > 100 µM (inactive) | 38.4 µM (inactive) | > 100 µM (inactive) | 44.6 µM (inactive) | > 100 µM (inactive) | > 100 µM (inactive) | > 100 µM (inactive) | > 100 µM (inactive) | > 100 µM (inactive) | 41.3 µM (inactive) | > 100 µM (inactive) | > 100 µM (inactive) | 59.8 µM (inactive) | > 100 µM (inactive) | > 100 µM (inactive) | > 100 µM (inactive) | > 100 µM (inactive) |  |
| Cc1n[nH]c(=O)n1/N=C/c1ccncc1 | > 100 µM (inactive) | > 100 µM (inactive) | > 100 µM (inactive) | > 100 µM (inactive) | > 100 µM (inactive) | > 100 µM (inactive) | > 100 µM (inactive) | > 100 µM (inactive) | > 100 µM (inactive) | > 100 µM (inactive) | > 100 µM (inactive) | > 100 µM (inactive) |  | > 100 µM (inactive) | > 100 µM (inactive) | > 100 µM (inactive) | > 100 µM (inactive) | > 100 µM (inactive) | > 100 µM (inactive) | > 100 µM (inactive) |
| CC(C)=CCC[C@@H](C)C1=C(O)C(=O)C(C)=C(Nc2ccccc2)C1=O | 13 µM (inactive) | 19.9 µM (inactive) | 28.4 µM (inactive) | 11.3 µM (inactive) |  | 26.7 µM (inactive) | 28.1 µM (inactive) | 9.2 µM (inactive) | 22.8 µM (inactive) | 14.5 µM (inactive) | 22.6 µM (inactive) | 31.8 µM (inactive) | 2.98 µM (inactive) | 12.5 µM (inactive) | 19.8 µM (inactive) | 13.5 µM (inactive) | 31.3 µM (inactive) | 18.1 µM (inactive) | 1.62 µM (inactive) | 19.2 µM (inactive) |
| CS(=O)(=O)Nc1ccc2ccccc2c1 | > 100 µM (inactive) | > 100 µM (inactive) | > 100 µM (inactive) | 95.7 µM (inactive) | > 100 µM (inactive) | 79.4 µM (inactive) | > 100 µM (inactive) | > 100 µM (inactive) | > 100 µM (inactive) | 21.1 µM (inactive) | > 100 µM (inactive) | > 100 µM (inactive) | > 100 µM (inactive) | > 100 µM (inactive) | > 100 µM (inactive) | > 100 µM (inactive) | > 100 µM (inactive) | > 100 µM (inactive) | > 100 µM (inactive) |  |
| C=C1C(=O)O[C@H]2C/C(C)=C/CC[C@]3(C)CCC[C@](C)(CC[C@@H]12)O3 | 8.69 µM (inactive) | 9.71 µM (inactive) | 14.6 µM (inactive) | 20.5 µM (inactive) | 6.35 µM (inactive) | 11.9 µM (inactive) | 8.85 µM (inactive) | 9.53 µM (inactive) | 7.71 µM (inactive) | 8.69 µM (inactive) | 6.4 µM (inactive) | 8.69 µM (inactive) |  | 8.97 µM (inactive) | 7.8 µM (inactive) | 8.99 µM (inactive) | 8.26 µM (inactive) | 8.69 µM (inactive) | 0.828 µM (active) | 8.09 µM (inactive) |
| C/C(=N\O)c1cccc(Nc2c3ccccc3nc3occc23)c1 | 3.42 µM (inactive) | 2.56 µM (inactive) | 3.05 µM (inactive) | 3.13 µM (inactive) | 1.74 µM (inactive) | 14.1 µM (inactive) | 7.03 µM (inactive) | 4.73 µM (inactive) |  | 7.18 µM (inactive) | 5.09 µM (inactive) | 8.61 µM (inactive) | 4.74 µM (inactive) | 13.6 µM (inactive) | 13.3 µM (inactive) | 8.07 µM (inactive) | 9.1 µM (inactive) | 3.52 µM (inactive) | 3.4 µM (inactive) |  |
| COc1cc([N+](=O)[O-])c(S(=O)(=O)O)cc1NS(=O)(=O)c1ccc(C)cc1 | > 100 µM (inactive) | > 100 µM (inactive) | > 100 µM (inactive) | > 100 µM (inactive) | > 100 µM (inactive) | > 100 µM (inactive) | > 100 µM (inactive) | > 100 µM (inactive) | > 100 µM (inactive) | > 100 µM (inactive) | > 100 µM (inactive) | > 100 µM (inactive) | > 100 µM (inactive) | > 100 µM (inactive) | > 100 µM (inactive) | > 100 µM (inactive) | > 100 µM (inactive) | > 100 µM (inactive) | > 100 µM (inactive) |  |
| CCOc1ccccc1/N=C\c1c2ccccc2cc2ccccc12 | 38.5 µM (inactive) | 18.9 µM (inactive) | 21.9 µM (inactive) | 26.1 µM (inactive) |  | 46.5 µM (inactive) | 31.1 µM (inactive) | 24.7 µM (inactive) | 24.5 µM (inactive) | 18.6 µM (inactive) | 32.3 µM (inactive) | 15.3 µM (inactive) | 16 µM (inactive) | 20.4 µM (inactive) | 21.2 µM (inactive) | 29 µM (inactive) | 21.6 µM (inactive) | 18.4 µM (inactive) | 9.29 µM (inactive) | 15.7 µM (inactive) |
| Clc1cc2nnn(C3CCCCO3)c2cc1Cl (stereo unspecified) | 37.2 µM (inactive) | 30.4 µM (inactive) | > 100 µM (inactive) | > 100 µM (inactive) | 42.5 µM (inactive) | 23.5 µM (inactive) | 60.7 µM (inactive) | 69.3 µM (inactive) |  | 30.7 µM (inactive) | > 100 µM (inactive) | 35.4 µM (inactive) |  | 80.7 µM (inactive) | 42.3 µM (inactive) | > 100 µM (inactive) | 63.1 µM (inactive) | 79.8 µM (inactive) | > 100 µM (inactive) | > 100 µM (inactive) |
| Nc1ccc(Oc2ccc(C3(c4ccc(Oc5ccc(N)c(O)c5)cc4)C4CC5C6CC7CC5C3C(C7)C6C4)cc2)cc1O | 4.02 µM (inactive) |  | 1.36 µM (inactive) | 1.73 µM (inactive) | 1.83 µM (inactive) | 2.72 µM (inactive) | 2.5 µM (inactive) | 1.52 µM (inactive) | 2.18 µM (inactive) | 2.04 µM (inactive) | 2.37 µM (inactive) | 3.13 µM (inactive) | 2.44 µM (inactive) | 1.81 µM (inactive) | 2.72 µM (inactive) | 1.75 µM (inactive) | 1.91 µM (inactive) | 1.71 µM (inactive) | 16 µM (inactive) | 1.7 µM (inactive) |
